Target: T1, recombinant human MNL phosphodiesterase type IV B (Homo sapiens, UniProt Q07343)
T1 construct: FLAG; made in house; host or cells: insect cells infected with recombinant baculovirus
Assay: Inhibition of recombinant human mononuclear lymphocyte (MNL) phosphodiesterase type IV B produced in insect cells with a baculovirus vector
Assay type: biochemical
Conditions: remaining enzyme activity versus control
Procedure: Inhibition of Recombinant Human Mononuclear Lymphocyte (MNL) Phosphodiesterase Type IV B Produced in Insect Cells with a Baculovirus Vector
The alleviating and/or curing effect of the instant compounds on allergic and atopic diseases was assessed by an in vitro assay system to detect an inhibiting effect on the recombinant human MNL phosphodiesterase type IV B.
Seventy-two hours after infection with recombinant baculovirus, the insect cells were harvested and pelleted at 500 g for 5 minutes. The cells were lysed in 10 ml lysis-buffer consisting of 20 mM Tris, 10 mM EGTA, 2 mM Na2EDTA, 1% Triton-X-100, 1 mM Na3VO4, 10 mM NaF, 2 μg/ml of leupeptine, pepstatine and aprotinine, 0.3 μg/ml benzamidine and 100 μg/ml TPCK pH 7.5. After 5 minutes on ice, solubilized cells were centrifuged at 4000 rpm for 15 minutes at 4° C. The resulting supernatant was filtered through a 0.45 μm filter (Millipore) and brought to TBS buffer (50 mM Tris, 150 mM NaCl pH 7.4).
The supernatant containing phosphodiesterase (PDE) type IV B, was subsequently loaded onto a 5 ml anti-FLAG-M2 affinity gel column, previously activated with 5 ml 100 mM glycine pH 3.5 and equilibrated with 20 ml 50 mM Tris, 150 mM NaCl pH 7.4. After washing the column with equilibration buffer, PDE IV was eluted in 1.5 ml fractions containing 37.5 μl IM Tris pH 8. The fractions were dialyzed overnight against 20 mM Tris, 2mM Na2EDTA and 400 mM NaCl pH 7.5 and tested for PDE IV activity. Identification was done on SDS PAGE and Western Blot (anti-FLAG-M2). Active fractions were pooled, brought to 10% glycerol and stored at −70° C.
The incubation mixture (pH 8) (200 μl) contained 20 mM Tris, 10 mM magnesium sulphate, 0.8 μM ^3H-cAMP (310 mCi/mmole) and the phosphodiesterase type IV, the amount depending on the enzymatic activity. […]
The inhibiting effect of the present compounds on recombinant human MNL phosphodiesterase PDE IV B was measured at different concentrations of the instant compounds.

T1 sequence (Q07343 whole entry): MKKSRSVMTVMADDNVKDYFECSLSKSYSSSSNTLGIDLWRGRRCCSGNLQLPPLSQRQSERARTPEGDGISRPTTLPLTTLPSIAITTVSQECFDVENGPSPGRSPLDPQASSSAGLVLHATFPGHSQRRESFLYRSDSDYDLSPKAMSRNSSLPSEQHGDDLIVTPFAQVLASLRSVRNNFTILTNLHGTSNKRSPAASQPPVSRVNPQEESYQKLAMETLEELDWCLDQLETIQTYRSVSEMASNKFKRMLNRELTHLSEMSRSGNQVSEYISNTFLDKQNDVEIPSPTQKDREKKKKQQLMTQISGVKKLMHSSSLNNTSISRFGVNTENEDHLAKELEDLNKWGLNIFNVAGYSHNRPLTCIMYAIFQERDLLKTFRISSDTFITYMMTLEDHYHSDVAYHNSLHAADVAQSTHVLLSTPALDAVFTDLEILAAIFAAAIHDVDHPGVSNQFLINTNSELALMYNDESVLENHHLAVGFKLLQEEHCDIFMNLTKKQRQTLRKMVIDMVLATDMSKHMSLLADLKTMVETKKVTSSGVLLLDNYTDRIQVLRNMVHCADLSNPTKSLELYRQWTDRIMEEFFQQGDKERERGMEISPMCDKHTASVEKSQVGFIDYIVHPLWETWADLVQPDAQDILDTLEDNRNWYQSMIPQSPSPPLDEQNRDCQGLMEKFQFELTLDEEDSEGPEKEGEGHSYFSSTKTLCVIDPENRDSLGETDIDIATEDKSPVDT

% Activity (% activity of PDE IV B versus control) (Test Dose 10^−7 M) [%]	% Activity (% activity of PDE IV B versus control) (Test Dose 10^−6 M) [%]	Compound
25		COc1ccc(C(C)Cn2cc[nH]c2=NC#N)nc1OC1CCCC1 (racemic) [Compound 22, (±)-[1-[2-[6-(cyclopentyloxy)-5-methoxy-2-pyridinyl]propyl]-1,3-dihydro-2H-imidazol-2-ylidene]cyanamide]
	35	COc1cnc(C(C)(O)Cn2cc[nH]c2=O)cc1OCCCCCc1ccccc1 (racemic) [Compound 23, (±)-1,3-dihydro-1-[2-hydroxy-2-[5-methoxy-4-[(5-phenylpentyl)oxy]-2-pyridinyl]propyl]-2H-imidazol-2-one]
	77	COc1cnc(C(O)Cn2cc[nH]c2=O)cc1OCCCCCc1ccccc1 (stereo not drawn) [Compound 18, 1,3-dihydro-1-[2-hydroxy-2-[5-methoxy-4-[(5-phenylpentyl)oxy]-2-pyridinyl]ethyl]-2H-imidazol-2-one]

Source: patent US6656959B1, “PDE IV inhibiting pyridine derivatives” (Janssen Pharmaceutica N.V., priority 2000, dated 2003)
